# Experimental data as given in US20100093706A1, “MULTIMEDIATOR TRANSPORTER INHIBITORS FOR USE IN TREATMENT OF CENTRAL NERVOUS SYSTEM DISORDERS” (priority 2006, published 2010).
# Experiments:
# Assay in all cases: cell-based
# Assay type in all cases: cell-based
# [1] = target: T1, DAT (h) (Homo sapiens, UniProt Q01959); conditions: human; nM; read-out: DAT (h) in vitro functional uptake
# T1 construct: expressed in transfected cells
# Description: (§1) Functional activity of the compounds was determined in vitro in cellular assays using recombinant human cell lines.
# [2] = target: T2, NET (h) (Homo sapiens, UniProt P23975); conditions: human; nM; read-out: NET (h) in vitro functional uptake
# T2 construct: expressed in transfected cells; host or cells: MDCK
# Description: as §1
# [3] = target: T3, 5-HT (h) (Homo sapiens, UniProt P31645); conditions: human; nM; read-out: 5-HT (h) in vitro functional uptake
# T3 construct: expressed in transfected cells; host or cells: HEK-293
# Description: as §1
# T3 sequence (P31645 whole entry): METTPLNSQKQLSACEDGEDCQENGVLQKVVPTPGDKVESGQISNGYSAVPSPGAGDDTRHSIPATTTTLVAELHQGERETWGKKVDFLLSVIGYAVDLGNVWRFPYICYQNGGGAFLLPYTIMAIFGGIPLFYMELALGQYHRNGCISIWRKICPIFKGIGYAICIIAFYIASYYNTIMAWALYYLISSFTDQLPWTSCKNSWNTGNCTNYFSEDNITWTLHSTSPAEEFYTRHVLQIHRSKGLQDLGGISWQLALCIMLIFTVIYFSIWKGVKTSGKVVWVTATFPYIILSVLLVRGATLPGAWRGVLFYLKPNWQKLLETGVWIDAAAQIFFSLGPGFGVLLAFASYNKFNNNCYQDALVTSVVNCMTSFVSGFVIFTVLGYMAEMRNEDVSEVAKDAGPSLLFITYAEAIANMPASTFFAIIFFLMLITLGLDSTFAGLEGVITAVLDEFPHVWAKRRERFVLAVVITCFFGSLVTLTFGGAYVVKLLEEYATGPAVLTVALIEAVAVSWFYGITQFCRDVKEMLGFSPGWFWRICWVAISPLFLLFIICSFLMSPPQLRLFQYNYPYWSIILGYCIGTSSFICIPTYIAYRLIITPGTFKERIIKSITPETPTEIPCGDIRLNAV
# T2 sequence (P23975 whole entry): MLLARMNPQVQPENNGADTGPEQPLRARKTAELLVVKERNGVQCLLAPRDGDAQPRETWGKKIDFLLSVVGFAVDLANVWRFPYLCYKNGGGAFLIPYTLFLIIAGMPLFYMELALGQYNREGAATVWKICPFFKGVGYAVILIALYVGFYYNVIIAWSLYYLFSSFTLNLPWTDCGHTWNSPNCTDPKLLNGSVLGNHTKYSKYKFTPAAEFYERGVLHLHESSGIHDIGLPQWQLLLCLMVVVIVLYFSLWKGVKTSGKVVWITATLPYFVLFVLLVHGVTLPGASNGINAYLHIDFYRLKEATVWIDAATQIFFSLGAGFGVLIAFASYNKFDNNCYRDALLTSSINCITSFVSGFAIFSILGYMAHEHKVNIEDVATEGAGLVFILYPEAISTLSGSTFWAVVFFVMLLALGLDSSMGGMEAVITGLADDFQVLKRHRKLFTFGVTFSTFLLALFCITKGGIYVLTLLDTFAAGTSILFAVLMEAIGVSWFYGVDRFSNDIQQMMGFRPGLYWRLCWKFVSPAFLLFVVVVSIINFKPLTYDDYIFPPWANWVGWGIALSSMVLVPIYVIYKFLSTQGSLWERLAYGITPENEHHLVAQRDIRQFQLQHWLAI
# T1 sequence (Q01959 whole entry): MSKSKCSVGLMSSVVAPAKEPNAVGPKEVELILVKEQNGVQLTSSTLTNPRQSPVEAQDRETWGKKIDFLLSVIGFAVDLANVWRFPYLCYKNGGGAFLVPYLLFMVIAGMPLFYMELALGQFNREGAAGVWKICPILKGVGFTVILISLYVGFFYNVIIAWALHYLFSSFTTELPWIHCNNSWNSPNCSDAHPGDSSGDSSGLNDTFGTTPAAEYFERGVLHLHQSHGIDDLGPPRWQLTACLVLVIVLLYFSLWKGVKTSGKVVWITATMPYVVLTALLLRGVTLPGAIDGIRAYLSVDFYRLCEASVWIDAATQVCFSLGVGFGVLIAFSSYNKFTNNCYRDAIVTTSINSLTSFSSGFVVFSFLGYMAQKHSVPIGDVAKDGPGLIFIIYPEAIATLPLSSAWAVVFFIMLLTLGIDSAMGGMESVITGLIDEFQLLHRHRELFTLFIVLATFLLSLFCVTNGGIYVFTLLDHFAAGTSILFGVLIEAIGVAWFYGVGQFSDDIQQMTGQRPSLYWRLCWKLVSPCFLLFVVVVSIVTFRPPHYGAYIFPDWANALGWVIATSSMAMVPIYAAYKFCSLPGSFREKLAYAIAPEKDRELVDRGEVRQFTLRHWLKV
Compound,EC50 [1] [nM],EC50 [2] [nM],EC50 [3] [nM]
C[C@@H]1[C@H](COc2ccc(C(F)(F)F)cc2)CCCN1CC(O)C1(c2ccc(Cl)cc2)CCC1 (some centres unmarked) [(6′)],3,3,–
"C[C@H]1CC[C@@H](COc2ccc(C(F)(F)F)cc2)CN1CC1(c2ccc(Cl)cc2)CCC1 [(13), (2S,5R)-1-{[1-(4-Chlorophenyl)cyclobutyl]methyl}-2-methyl-5-{[4-(trifluoromethyl)phenoxy]methyl}piperidine]",< 1,100,> 2000
"C[C@H]1CCN(CC2(c3ccc(Cl)cc3)CCC2)C[C@@H]1COc1ccc(C(F)(F)F)cc1 [(14), (3R,4S)-1-{[1-(4-Chlorophenyl)cyclobutyl]methyl}-4-methyl-3-{[4-(trifluoromethyl)phenoxy]methyl}piperidine]",< 1,150,> 2000
"C[C@@H]1CCN(CC2(c3ccc(Cl)cc3)CCC2)C[C@H]1COc1ccc(C(F)(F)F)cc1 [(15), (3S,4R)-1-{[1-(4-Chlorophenyl)cyclobutyl]methyl}-4-methyl-3-{[4-(trifluoromethyl)phenoxy]methyl}piperidine]",< 1,350,> 2000
"C[C@H]1CCN(CC2(c3ccc(Cl)cc3)CCC2)C[C@H]1COc1ccc(C(F)(F)F)cc1 [(16), (3S,4S)-1-{[1-(4-Chlorophenyl)cyclobutyl]methyl}-4-methyl-3-{[4-(trifluoromethyl)phenoxy]methyl}piperidine]",< 1,100,> 2000
"C[C@H]1CC[C@@H](COc2ccc(C(F)(F)F)cc2)CN1C[C@@H](O)C1(c2ccc(Cl)cc2)CCC1 [(17), (S)-1-[1-(4-Chlorophenyl)cyclobutyl]-2-{(2S,5R)-2-methyl-5-[4-(trifluoromethyl)phenoxy]methyl}piperidin-1-ylethanol]",1,5,> 2000
"C[C@H]1CC[C@@H](COc2ccc(C(F)(F)F)cc2)CN1C[C@H](O)C1(c2ccc(Cl)cc2)CCC1 [(18), (R)-1-[1-(4-Chlorophenyl)cyclobutyl]-2-{(2S,5R)-2-methyl-5-[4-(trifluoromethyl)phenoxy]methyl}piperidin-1-ylethanol]",1,2,> 2000
"C[C@@H]1CC[C@H](COc2ccc(C(F)(F)F)cc2)CN1C[C@H](O)C1(c2ccc(Cl)cc2)CCC1 [(19), (R)-1-[1-(4-Chlorophenyl)cyclobutyl]-2-{(2R,5S)-2-methyl-5-[4-(trifluoromethyl)phenoxy]methyl}piperidin-1-ylethanol]",1,9,> 2000
"C[C@@H]1CC[C@H](COc2ccc(C(F)(F)F)cc2)CN1C[C@@H](O)C1(c2ccc(Cl)cc2)CCC1 [(20), (S)-1-[1-(4-Chlorophenyl)cyclobutyl]-2-{(2R,5S)-2-methyl-5-[4-(trifluoromethyl)phenoxy]methyl}piperidin-1-ylethanol]",1,2,20
"C[C@@H]1CC[C@@H](COc2ccc(C(F)(F)F)cc2)CN1C[C@@H](O)C1(c2ccc(Cl)cc2)CCC1 [(21), (S)-1-[1-(4-Chlorophenyl)cyclobutyl]-2-{(2R,5R)-2-methyl-5-[4-(trifluoromethyl)phenoxy]methyl}-piperidin-1-ylethanol]",1,5,10
"CC(C)C[C@@H](N)C1(c2ccc(Cl)cc2)CCC1 [R-DDMS, reference compound]",100,200,1500
"CN[C@H](CC(C)C)C1(c2ccc(Cl)cc2)CCC1 [R-DMS, reference compound]",30,300,1500
